Assay results from ChEMBL document CHEMBL5131436, “Dual Sigma-1 receptor antagonists and hydrogen sulfide-releasing compounds for pain treatment: Design, synthesis, and pharmacological evaluation” (Eur J Med Chem, 2022).
Values after ≈ are worked out from the molar mass of the structure shown. Active and inactive are the calls of the source. The rule behind the calls is not given here.

Columns and labels:
[1] = target: Mu-type opioid receptor (Rattus norvegicus, UniProt P33535); assay: Displacement of [3H]-DAMGO from Sprague-Dawley rat brain membrane mu opioid receptor incubated for 45 mins by liquid scintillation counting analysis; assay type: cell membranes
[2] = target: Delta-type opioid receptor (Rattus norvegicus, UniProt P33533); assay: Displacement of [3H]-(2-D-Ala)[Tyrosy1-3,5-]-DELTORPHIN II from Sprague-Dawley rat brain membrane delta opioid receptor incubated for 45 mins by liquid scintillation counting analysis; assay type: cell membranes
[3] = target: T1, Sigma non-opioid intracellular receptor 1 (Cavia porcellus, UniProt Q60492); assay: biochemical
[4] = target: T2, Sigma intracellular receptor 2 (Rattus norvegicus, UniProt Q5U3Y7); assay: biochemical
T2 sequence (Q5U3Y7 whole entry): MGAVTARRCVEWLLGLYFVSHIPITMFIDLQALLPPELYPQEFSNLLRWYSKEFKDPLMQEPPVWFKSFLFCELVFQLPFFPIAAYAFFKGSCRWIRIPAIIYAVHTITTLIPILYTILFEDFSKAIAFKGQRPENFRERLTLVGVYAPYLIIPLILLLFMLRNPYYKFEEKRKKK

[5] = target: Kappa-type opioid receptor (Cavia porcellus, UniProt P41144); assay: Displacement of [3H]-U69593 from Dunkin-Hartley guinea pig brain membrane kappa opioid receptor incubated for 30 mins by liquid scintillation counting analysis; assay type: cell membranes
[6] = Induction of H2S release in PBS buffer incubated for 1 hrs in presence of Washington State Probe-1 by spectrofluorimeter assay; assay type: functional
[7] = Stability of compound in phosphate buffer at pH 7.4 assessed as half life by UHPLC-PDA analysis; assay type: physicochemical
[8] = Aqueous solubility of compound at 5 mg measured for 24 hrs by UHPLC-PDA analysis; assay type: physicochemical; conditions: water
[9] = Induction of motor coordination impairment in wild type CD1 mouse assessed as latency to fall at 40 mg/kg, sc measured upto 4 hrs by rotarod test; assay type: toxicity, organism-based; conditions: in vivo
[10] = target: hERG (KCNH2) (Homo sapiens, UniProt Q12809); assay: Inhibition of human ERG potassium channel expressed in CHO-K1 cells at 10 uM by Qube-automated patch clamp assay relative to control; assay type: toxicity, cell-based; conditions: CHO-K1 cells expressing human ERG potassium channel
[11] = Induction of hypotension in wild type CD1 mouse assessed as mean arterial blood pressure at 30 to 40 mg/kg, sc incubated upto 45 mins by tail-cuff plethysmography; assay type: toxicity, organism-based; conditions: in vivo, 0.75 h, dose 30-40 mg/kg
[12] = target: Voltage-gated inwardly rectifying potassium channel KCNH2 (Homo sapiens, UniProt Q12809); assay: Inhibition of human ERG potassium channel expressed in CHO-K1 cells by Qube-automated patch clamp assay; assay type: toxicity, cell-based
[13] = tested on: Mus musculus; assay: Analgesic activity in wild type CD1 mouse model of capsaicin-induced mechanical hypersensitivity assessed as reduction of capsaicin-induced mechanical hypersensitivity at 40 mg/kg, sc in presence of sigma1 receptor agonist PRE-084; assay type: functional, organism-based
[14] = tested on: Mus musculus; assay: Analgesic activity in wild type CD1 mouse model of capsaicin-induced mechanical hypersensitivity assessed as reduction of capsaicin-induced mechanical hypersensitivity at 10 to 40 mg/kg, sc; assay type: functional, organism-based; conditions: dose 10-40 mg/kg
[15] = Stability of compound in saline solution assessed as half life by UHPLC-PDA analysis; assay type: physicochemical
[16] = tested on: Mus musculus; assay: Antinociceptive activity in sc dosed wild type CD1 mouse model of capsaicin-induced mechanical hypersensitivity assessed as reduction in mechanical hypersensitivity; assay type: functional
[17] = target: T1, Sigma non-opioid intracellular receptor 1
[18] = target: Sigma intracellular receptor 2 (Homo sapiens, UniProt Q5BJF2); assay: Displacement of [3H]-di-o-tolylguanidine from Sigma 2-receptor (unknown origin)
[19] = target: Sigma non-opioid intracellular receptor 1 (Homo sapiens, UniProt Q99720); assay: Displacement of [3H]-pentazocine from Sigma 1-receptor (unknown origin)
[20] = Induction of H2S release in PBS buffer at 100 uM in presence of Washington State Probe-1 by spectrofluorimeter assay; assay type: functional
[21] = tested on: Mus musculus; assay: Analgesic activity in wild type CD1 mouse model of capsaicin-induced mechanical hypersensitivity assessed as reduction in mechanical hypersensitivity at 5 mg/kg, sc in presence of BD-1063 at 5 mg/kg and PRE-084 at 32 mg/kg; assay type: functional, organism-based
[22] = tested on: Mus musculus; assay: Analgesic activity in wild type CD1 mouse model of capsaicin-induced mechanical hypersensitivity assessed as reduction in mechanical hypersensitivity at 5 mg/kg, sc in presence of sigma-1 receptor antagonist BD-1063 at 5 mg/kg; assay type: functional
[23] = tested on: Mus musculus; assay: Antinociceptive activity in wild type CD1 mouse model of capsaicin-induced mechanical hypersensitivity assessed as reduction in mechanical hypersensitivity at 10 mg/kg, sc in presence of Sigma 1 receptor agonist PRE-084; assay type: functional, organism-based
[24] = Induction of motor coordination impairment in wild type CD1 mouse assessed as latency to fall at 5 mg/kg, sc in presence of sigma-1 receptor […] BD-1063 at 5 mg/kg, sc measured upto 4 hrs by rotarod test; assay type: toxicity, organism-based; conditions: in vivo

Delta-type opioid receptor, sequence (P33533 whole entry): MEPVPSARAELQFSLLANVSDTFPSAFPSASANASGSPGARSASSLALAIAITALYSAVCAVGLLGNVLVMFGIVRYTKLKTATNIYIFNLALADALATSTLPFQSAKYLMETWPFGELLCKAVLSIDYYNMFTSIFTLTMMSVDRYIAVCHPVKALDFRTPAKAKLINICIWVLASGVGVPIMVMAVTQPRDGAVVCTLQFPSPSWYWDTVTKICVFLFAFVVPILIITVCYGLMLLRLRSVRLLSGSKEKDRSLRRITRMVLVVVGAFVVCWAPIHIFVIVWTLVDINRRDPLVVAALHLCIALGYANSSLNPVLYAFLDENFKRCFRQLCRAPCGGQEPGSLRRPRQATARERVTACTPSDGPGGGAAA
Mu-type opioid receptor, sequence (P33535 whole entry): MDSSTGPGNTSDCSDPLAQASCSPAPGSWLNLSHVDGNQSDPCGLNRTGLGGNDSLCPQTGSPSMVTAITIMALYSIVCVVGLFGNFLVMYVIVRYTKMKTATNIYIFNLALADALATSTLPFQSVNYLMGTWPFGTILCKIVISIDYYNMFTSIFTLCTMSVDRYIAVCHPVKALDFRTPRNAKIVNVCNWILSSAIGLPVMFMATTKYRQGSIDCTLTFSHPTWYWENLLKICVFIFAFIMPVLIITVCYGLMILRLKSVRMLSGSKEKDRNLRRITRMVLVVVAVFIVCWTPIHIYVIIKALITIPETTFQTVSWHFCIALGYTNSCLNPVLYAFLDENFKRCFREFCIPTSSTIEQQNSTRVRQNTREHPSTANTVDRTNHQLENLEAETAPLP
T1 sequence (Q60492 whole entry): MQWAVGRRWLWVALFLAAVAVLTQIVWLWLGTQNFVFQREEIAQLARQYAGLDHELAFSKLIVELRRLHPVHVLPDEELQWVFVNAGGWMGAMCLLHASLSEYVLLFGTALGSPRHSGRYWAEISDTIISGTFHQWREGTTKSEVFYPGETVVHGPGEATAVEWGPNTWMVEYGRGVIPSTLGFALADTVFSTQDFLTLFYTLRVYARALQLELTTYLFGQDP
Kappa-type opioid receptor, sequence (P41144 whole entry): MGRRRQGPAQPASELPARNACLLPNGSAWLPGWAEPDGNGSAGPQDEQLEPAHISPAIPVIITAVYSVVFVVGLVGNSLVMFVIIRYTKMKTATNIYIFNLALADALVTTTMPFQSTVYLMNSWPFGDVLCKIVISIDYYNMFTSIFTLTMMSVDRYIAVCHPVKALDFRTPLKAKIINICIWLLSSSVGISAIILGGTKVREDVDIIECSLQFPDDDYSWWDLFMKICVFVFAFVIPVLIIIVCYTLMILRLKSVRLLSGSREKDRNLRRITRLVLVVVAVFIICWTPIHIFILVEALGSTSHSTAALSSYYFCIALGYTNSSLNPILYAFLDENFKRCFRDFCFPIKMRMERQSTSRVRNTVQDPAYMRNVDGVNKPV
Sigma non-opioid intracellular receptor 1 (Homo sapiens, UniProt Q99720), sequence (Q99720 whole entry): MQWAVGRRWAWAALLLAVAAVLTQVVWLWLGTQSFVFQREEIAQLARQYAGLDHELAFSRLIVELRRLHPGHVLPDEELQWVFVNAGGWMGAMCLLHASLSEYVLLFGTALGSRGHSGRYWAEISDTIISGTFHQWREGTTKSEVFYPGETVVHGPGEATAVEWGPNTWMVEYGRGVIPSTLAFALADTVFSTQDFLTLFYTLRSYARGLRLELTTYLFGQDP
Voltage-gated inwardly rectifying potassium channel KCNH2, sequence (Q12809 whole entry): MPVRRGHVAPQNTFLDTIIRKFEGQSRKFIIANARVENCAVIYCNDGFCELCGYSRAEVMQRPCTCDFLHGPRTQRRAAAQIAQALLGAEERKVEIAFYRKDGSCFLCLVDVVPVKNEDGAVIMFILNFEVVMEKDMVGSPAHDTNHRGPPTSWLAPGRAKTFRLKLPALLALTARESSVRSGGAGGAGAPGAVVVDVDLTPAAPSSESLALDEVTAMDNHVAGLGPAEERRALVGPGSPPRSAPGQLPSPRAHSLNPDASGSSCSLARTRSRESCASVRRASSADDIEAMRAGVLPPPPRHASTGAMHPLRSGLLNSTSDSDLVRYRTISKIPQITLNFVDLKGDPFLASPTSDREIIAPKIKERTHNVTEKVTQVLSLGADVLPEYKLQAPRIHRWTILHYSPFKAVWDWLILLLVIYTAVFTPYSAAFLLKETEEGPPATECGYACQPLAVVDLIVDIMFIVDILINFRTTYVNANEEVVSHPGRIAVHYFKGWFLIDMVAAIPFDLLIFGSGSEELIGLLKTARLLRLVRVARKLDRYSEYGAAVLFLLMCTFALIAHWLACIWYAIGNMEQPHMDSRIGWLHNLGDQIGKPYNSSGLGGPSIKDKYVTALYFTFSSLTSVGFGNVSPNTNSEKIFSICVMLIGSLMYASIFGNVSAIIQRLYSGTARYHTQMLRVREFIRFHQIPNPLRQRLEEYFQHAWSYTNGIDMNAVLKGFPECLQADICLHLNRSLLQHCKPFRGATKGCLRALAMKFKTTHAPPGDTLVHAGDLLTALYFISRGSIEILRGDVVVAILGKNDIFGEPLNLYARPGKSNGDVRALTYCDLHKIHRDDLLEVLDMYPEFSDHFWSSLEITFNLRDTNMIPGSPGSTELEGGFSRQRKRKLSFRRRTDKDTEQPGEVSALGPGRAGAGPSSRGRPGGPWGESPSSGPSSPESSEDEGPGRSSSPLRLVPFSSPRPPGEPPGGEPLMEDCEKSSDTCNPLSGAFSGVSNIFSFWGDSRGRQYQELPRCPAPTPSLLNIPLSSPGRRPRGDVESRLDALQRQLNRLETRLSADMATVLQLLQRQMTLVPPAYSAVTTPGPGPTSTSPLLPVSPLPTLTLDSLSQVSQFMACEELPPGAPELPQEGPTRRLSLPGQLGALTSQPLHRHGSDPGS
hERG (KCNH2), sequence (Q12809 whole entry): as above
Sigma intracellular receptor 2 (Homo sapiens, UniProt Q5BJF2), sequence (Q5BJF2 whole entry): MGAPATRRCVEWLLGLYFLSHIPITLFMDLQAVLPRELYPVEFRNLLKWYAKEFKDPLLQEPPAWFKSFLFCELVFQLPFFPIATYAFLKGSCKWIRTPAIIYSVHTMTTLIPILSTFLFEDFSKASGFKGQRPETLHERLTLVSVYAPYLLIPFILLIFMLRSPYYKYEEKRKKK

| Compound | Ki [1] | Ki [2] | Ki [3] | Ki [4] | Ki [5] | Activity [6] | further results |
| --- | --- | --- | --- | --- | --- | --- | --- |
| NC(=O)c1ccc(C(=O)OC(CCCN2CCC(O)(c3ccc(Cl)cc3)CC2)c2ccc(F)cc2)cc1 (stereo not drawn) | 0.817 µM | > 10 µM | 0.173 µM | 0.618 µM | > 10 µM | – | – |
| NC(=S)c1ccc(C(=O)NC2CCN(Cc3ccccc3)CC2)cc1 | > 10 µM | > 10 µM | – | – | > 10 µM | 38.4 µM | half-life [7]: 1.55 h; solubility at 24 h [8]: 1.25 µM (≈ 0.442 µg/mL); Activity [9]: Non-Toxic; inhibition at 10 µM [10]: 60%; Activity [11]: Non-Toxic; IC50 [12]: 6.8 µM; Activity [13]: Active; Activity [14]: Active; half-life [15]: 4.17 h |
| NC(=S)c1ccc(C(=O)OC(CCCN2CCC(O)(c3ccc(Cl)cc3)CC2)c2ccc(F)cc2)cc1 (stereo not drawn) | 1.46 µM | > 10 µM | 0.156 µM | 0.311 µM | > 10 µM | 51.7 µM | – |
| NC(=O)c1ccc(C(=O)NC2CCN(Cc3ccccc3)CC2)cc1 | > 10 µM | > 10 µM | – | – | > 10 µM | – | – |
| Oc1ccc2c3c1O[C@H]1c4[nH]c5ccccc5c4C[C@@]4(O)[C@@H](C2)N(CC2CC2)CC[C@]314 [NALTRINDOLE] | – | 0.00253 µM | – | – | – | – | – |
| NC(=O)c1ccc(C(=O)OCCCCN2CCC(O)(c3ccc(Cl)cc3)CC2)cc1 | > 10 µM | > 10 µM | 0.126 µM | 0.933 µM | > 10 µM | – | – |
| NC(=S)c1ccc(C(=O)OCCCCN2CCC(O)(c3ccc(Cl)cc3)CC2)cc1 | > 10 µM | > 10 µM | 0.058 µM | 0.266 µM | > 10 µM | 41.8 µM | – |
| CN1CCN(CCc2ccc(Cl)c(Cl)c2)CC1 | – | – | – | – | – | – | ED50 [16]: 10.3 mg/kg; Ki [17]: 0.014 µM |
| O=C(NC1CCN(Cc2ccccc2)CC1)c1ccc(F)cc1 | – | – | 0.006 µM | – | – | – | Ki [18]: 0.19 µM; Ki [19]: 0.006 µM |
| NC(=O)c1ccc(C(=O)N2CCN(Cc3ccccc3)CC2)cc1 | 2.55 µM | > 10 µM | > 5 µM | > 10 µM | > 10 µM | – | Activity [13]: Active; Activity [14]: Active |
| NC(=S)c1ccc(C(=O)O)cc1 | > 10 µM | > 10 µM | – | – | > 10 µM | 34.4 µM | Activity [20]: Active; Activity [21]: Active; ED50 [22]: 7.52 mg/kg; ED75 [22]: 9.75 mg/kg; ED90 [22]: 12.6 mg/kg; ED50 [16]: 6.12 mg/kg; Activity [23]: Active; Activity [24]: Non-Toxic |
| NC(=O)c1ccc(C(=O)O)cc1 | > 10 µM | > 10 µM | > 10 µM | > 10 µM | > 10 µM | – | – |
| C[C@@H]1CCO[C@H]2Cn3cc(C(=O)NCc4ccc(F)cc4F)c(=O)c(O)c3C(=O)N12 [DOLUTEGRAVIR] | – | – | 0.124 µM | 0.018 µM | – | – | – |
| NC(=S)c1ccc(C(=O)N2CCN(Cc3ccccc3)CC2)cc1 | > 10 µM | > 10 µM | 0.668 µM | > 10 µM | > 10 µM | 46.7 µM | Activity [13]: Active; Activity ([14]; DDE = dose-dependent effect): Dde |
